Legend:
Conditions in all cases: 72 h
Caco-2 [1] = assay: cell viability relative to DMSO; higher = less toxic
Calu-3 [2] = assay: as above
HepG2 [3] = assay: as above
U2OS [4] = assay: as above
Vero E6 [5] = assay: as above
Caco-2 [6] = assay: relative viability EC50 (midpoint between 100% and the lowest measured viability); higher = less toxic
Calu-3 [7] = assay: as above
HepG2 [8] = assay: as above
U2OS [9] = assay: as above
Vero E6 [10] = assay: as above
Caco-2 [11] = assay: drug sensitivity score (DSS) for viability; higher = more toxic; extreme values may be limits of the assay
Calu-3 [12] = assay: as above
HepG2 [13] = assay: as above
U2OS [14] = assay: as above
Vero E6 [15] = assay: as above

Compound	cell viability (Caco-2 [1]; 1 nM) [%]	cell viability (Caco-2 [1]; 10 nM) [%]	cell viability (Caco-2 [1]; 100 nM) [%]	cell viability (Caco-2 [1]; 1000 nM) [%]	cell viability (Caco-2 [1]; 10000 nM) [%]	cell viability (Calu-3 [2]; 1 nM) [%]	cell viability (Calu-3 [2]; 10 nM) [%]	cell viability (Calu-3 [2]; 100 nM) [%]	cell viability (Calu-3 [2]; 1000 nM) [%]	cell viability (Calu-3 [2]; 10000 nM) [%]	cell viability (HepG2 [3]; 1 nM) [%]	cell viability (HepG2 [3]; 10 nM) [%]	cell viability (HepG2 [3]; 100 nM) [%]	cell viability (HepG2 [3]; 1000 nM) [%]	cell viability (HepG2 [3]; 10000 nM) [%]	cell viability (U2OS [4]; 1 nM) [%]	cell viability (U2OS [4]; 10 nM) [%]	cell viability (U2OS [4]; 100 nM) [%]	cell viability (U2OS [4]; 1000 nM) [%]	cell viability (U2OS [4]; 10000 nM) [%]	cell viability (Vero E6 [5]; 1 nM) [%]	cell viability (Vero E6 [5]; 10 nM) [%]	cell viability (Vero E6 [5]; 100 nM) [%]	cell viability (Vero E6 [5]; 1000 nM) [%]	cell viability (Vero E6 [5]; 10000 nM) [%]	relative viability EC50 (Caco-2 [6]) [µM]	relative viability EC50 (Calu-3 [7]) [µM]	relative viability EC50 (HepG2 [8]) [µM]	relative viability EC50 (U2OS [9]) [µM]	relative viability EC50 (Vero E6 [10]) [µM]	drug sensitivity score (Caco-2 [11])	drug sensitivity score (Calu-3 [12])	drug sensitivity score (HepG2 [13])	drug sensitivity score (U2OS [14])	drug sensitivity score (Vero E6 [15])
COc1ncc2cc(C(=O)Nc3cc(C(=O)NCc4cccc(Cl)c4)ccc3Cl)c(=O)[nH]c2n1 [TC-S-7004]	111	107	99.6	98.6	95	94.8	94.8	105	104	104	98.6	97.4	100	87.7	101	98.8	102	103	103	99.1	104	101	102	100	95	> 10	> 10	> 10	> 10	> 10	0	0	0	0	0
CCCCCCC(=O)OC1CC(C)(C)NC(C)(C)C1 [TMPH]	106	99.4	99.3	103	102	102	89.7	96	108	98.7	109	93.5	99.5	92.9	106	99.7	101	98.9	99.6	99.1	99	96.4	101	95.2	98.4	> 10	> 10	> 10	> 10	> 10	0	0	0	0	0
CC(=O)N[C@@H](CSC/C=C(\C)CC/C=C(\C)CCC=C(C)C)C(=O)O [acetyl-farnesyl-cysteine]	92.9	98.1	100	101	108	108	84.9	86.6	99.9	101	90.9	92.5	99.8	102	105	95.7	96.9	101	99	101	93.9	107	93	99.6	101	> 10	> 10	> 10	> 10	> 10	0	0	0	0	0
CCC[S+]([O-])c1ccc2[nH]c(NC(=O)OC)nc2c1 (stereo not given) [albendazole-oxide]	101	98.8	96.6	101	102	114	104	103	95.7	107	107	103	98	106	83.7	105	101	101	99.6	103	103	104	102	101	94	> 10	> 10	> 10	> 10	> 10	0	0	0.2	0	0
O=C1c2cccc(O)c2C(=O)c2c(O)cc(CO)cc21 [aloe-emodin]	99.3	104	98.8	92.4	91.8	93.4	92.5	103	97.8	97.6	95	100	90.6	105	95.2	97	98	98.6	96.9	102	103	104	101	102	98.5	> 10	> 10	> 10	> 10	> 10	0	0	0	0	0
CCCN(CCC)C(=O)Cc1c(-c2ccc(Cl)cc2)nc2ccc(Cl)cn12 [alpidem]	91.5	103	102	104	100	95.7	96.4	96.2	98.9	107	92.5	94.6	96.6	102	95.1	92.6	97.4	95.9	104	112	102	99.6	104	97.4	112	> 10	> 10	> 10	> 10	> 10	0	0	0	0	0
O=C1c2c(O)cccc2Cc2cccc(O)c21 [anthralin]	102	95.8	97.3	96.9	93.4	103	98.5	89.8	95.9	108	90.2	103	119	105	92.3	92.3	97.6	97	98.8	102	102	88.7	96	78.3	100	> 10	> 10	> 10	> 10	> 10	0	0	0	0	0
C[N+]1([O-])[C@@H]2CC[C@H]1C[C@@H](OC(=O)C(CO)c1ccccc1)C2 (stereo not given in full) [atropine-oxide]	84	96.6	99.3	90.2	93.9	97.6	93.3	98.6	94.4	102	88	99.2	95.8	98.6	94.5	97.4	107	101	102	96.5	88.2	103	102	111	95.5	> 10	> 10	> 10	> 10	> 10	0	0	0	0	0
C[C@H]1C[C@H]2[C@@H]3CCC4=CC(=O)C=C[C@]4(C)[C@@]3(Cl)[C@@H](O)C[C@]2(C)[C@@]1(O)C(=O)CO [beclomethasone]	108	88.6	95.2	98.4	112	102	97.3	103	95.3	91.5	92.7	110	96.7	106	113	97.5	92.9	101	95.8	94	94.4	90.4	93.5	99.8	110	> 10	> 10	> 10	> 10	> 10	0	0	0	0	0
NC[C@H]1O[C@H](O[C@H]2[C@H](O)[C@@H](O[C@H]3O[C@H](CO)[C@@H](O)[C@H](N)[C@H]3O)[C@H](N)C[C@@H]2N)[C@H](N)[C@@H](O)[C@@H]1O [bekanamycin]	103	101	95.9	110	100	111	93	97.8	111	97.3	94.7	97.8	103	94.4	99.1	95.7	103	97.5	101	97.7	98.1	102	99.2	97.4	108	> 10	> 10	> 10	> 10	> 10	0	0	0	0	0
O=C(O)c1ccc(NC(=O)[C@H](Cc2ccc(O)cc2)NC(=O)c2ccccc2)cc1 [bentiromide]	92.1	92	92.3	87	104	107	101	104	95.4	95	91.9	116	102	106	102	105	102	107	99.5	108	93.5	107	94.4	99	106	> 10	> 10	> 10	> 10	> 10	0	0	0	0	0
CCCCCCCCCCCCC[N+](C)(C)Cc1ccccc1 [benzalkonium]	102	102	110	108	19.5	104	98.9	97	98.8	37.3	96.1	108	102	116	22.9	97.7	91.8	102	92.9	13.7	89	101	96.1	105	92.4	3.62	3.02	3.95	2.49	> 10	3.9	3.6	3.4	5.9	0
C[N+](C)(C)CC(=O)O [betaine]	99.7	90	93.5	96.9	87.1	101	95.8	106	91.4	98.7	96.3	89.1	108	98.6	106	99.5	102	98.8	104	96.7	115	100	104	107	98.9	> 10	> 10	> 10	> 10	> 10	0	0	0	0	0
CCCC(=O)N1CCCN(c2nc(N)c3cc(OC)c(OC)cc3n2)CC1 [bunazosin]	108	96.4	101	101	99.7	102	101	105	92	115	94.7	99.3	103	94.3	99.3	95.4	103	101	96.7	98.2	104	105	102	99.3	97.3	> 10	> 10	> 10	> 10	> 10	0	0	0	0	0

Source: the supplement of paper PMC13380429
